For assay [1], the system named is Phytophthora infestans. The experiment in a line: whole plant or invertebrate. The following applies: for pest or weed control at 20 ppm: read-out: Test 1 Measured, component (b) alone 20 ppm; for pest or weed control at 100 ppm: read-out: Test 1 Measured, component (b) alone 100 ppm; for pest or weed control at 500 ppm: read-out: Test 1 Measured, component (b) alone 500 ppm; for pest or weed control at 10 ppm: read-out: Test 1 preventive value, Measured, applied alone, 10 ppm; for pest or weed control at 50 ppm: read-out: Test 1 preventive value, Measured, applied alone, 50 ppm; for pest or weed control at 250 ppm: read-out: Test 1 preventive value, Measured, applied alone, 250 ppm; for Test 1 preventive value, Measured: applied alone. It is filed as in vivo.

Assay [2] deals with Pseudoperonospora cubensis. The experiment in a line: Test 2: control effect against cucumber downy mildew. The following applies: for pest or weed control at 20 ppm: component (b) alone 20 ppm; for pest or weed control at 100 ppm: component (b) alone 100 ppm; for pest or weed control at 500 ppm: component (b) alone 500 ppm. It is filed as in vivo.
Setting [3] is: Phytophthora infestans, in Solanum lycopersicum.
[4] abbreviates: Pseudoperonospora cubensis, read-out: Test 2 Measured.
The mark [5] stands for this setting: Phytophthora infestans, in Solanum lycopersicum, read-out: Test 1 Measured preventive value, component (b) alone, 0.4 ppm.
Setting [6] is: Phytophthora infestans, in Solanum lycopersicum, read-out: Test 1 Measured preventive value, component (b) alone, 2 ppm.
The mark [7] stands for this setting: Pseudoperonospora cubensis, applied alone, 10 ppm, read-out: Test 2 preventive value, Measured.
Setting [8] is: Pseudoperonospora cubensis, applied alone, 50 ppm, read-out: Test 2 preventive value, Measured.
Setting [9] is: Pseudoperonospora cubensis, applied alone, read-out: Test 2 preventive value, Measured.

Read-outs that look alike come from different tables or passages of the source.

As to `CC(C)(C)C(O)(CCc1ccc(Cl)cc1)Cn1cncn1` (stereo not shown) [Tebuconazole], in assay [1] (setting [3]), the pest or weed control at 20 ppm worked out at 0%, the pest or weed control at 100 ppm is 0% and the pest or weed control at 500 ppm was found to be 16.7%. In assay [2] (setting [4]), the pest or weed control at 20 ppm amounted to 0%, the pest or weed control at 100 ppm turned out to be 10% and the pest or weed control at 500 ppm is 97%.

Consider `N#Cc1c[nH]cc1-c1cccc2c1OC(F)(F)O2` [Fludioxonil], for which, in assay [1] (setting [3]), the pest or weed control at 20 ppm came out at 0%, the pest or weed control at 100 ppm stood at 6.7% and the pest or weed control at 500 ppm amounted to 18.3%. In addition, in assay [2] (setting [4]), the pest or weed control at 20 ppm turned out to be 87.5%, the pest or weed control at 100 ppm was determined as 97% and the pest or weed control at 500 ppm was determined as 98.3%.

`CC(C)NC(=O)N1CC(=O)N(c2cc(Cl)cc(Cl)c2)C1=O` [Iprodione]: in assay [1] (setting [3]), the pest or weed control at 20 ppm worked out at 0%, the pest or weed control at 100 ppm was 0% and the pest or weed control at 500 ppm is 5%. Further, in assay [2] (setting [4]), the pest or weed control at 20 ppm came to 0%, the pest or weed control at 100 ppm is 0% and the pest or weed control at 500 ppm is 0%.

With `Cc1cc(C(F)(F)F)nn1CC(=O)N1CCC(c2nc(C3=NOC(c4c(F)cccc4F)C3)cs2)CC1` (stereo not shown) [Oxathiapiprolin], the “Test 1 Measured” value in assay [1] (component (b) alone 0.0024 ppm) turned out to be 60.2; in assay [1] (component (b) alone 0.012 ppm), 95; in assay [1] (component (b) alone 0.06 ppm), 100. The “Test 2 Measured” value in assay [2] (component (b) alone 0.0024 ppm) turned out to be 40; in assay [2] (component (b) alone 0.012 ppm), 99; in assay [2] (component (b) alone 0.06 ppm) it was 100.

`Cc1c(Br)c2ccc(F)cc2n1S(=O)(=O)c1ncn(S(=O)(=O)N(C)C)n1` [Amisulbrom]: the “Test 1 Measured” value came out at 60 in assay [1] (component (b) alone, 0.4 ppm); 80 in assay [1] (component (b) alone, 2 ppm); 97 in assay [1] (component (b) alone, 10 ppm). For the same molecule, the “Test 2 Measured” value in assay [2] (component (b) alone, 0.4 ppm) is reported as 27.5; in assay [2] (component (b) alone, 2 ppm) it was 98.8; in assay [2] (component (b) alone, 10 ppm), 100.

Regarding `COc1ccc(C(=CC(=O)N2CCOCC2)c2ccc(Cl)cc2)cc1OC` [Dimethomorph], in assay [1] (setting [5]), the pest or weed control at 0.4 ppm amounted to 11.7%. Further, the pest or weed control at 2 ppm in assay [1] (setting [6]) amounted to 26.7%. The “Test 2 Measured preventive value” in assay [2] (component (b) alone, 0.4 ppm) turned out to be 0; in assay [2] (component (b) alone, 2 ppm), 62.5; in assay [2] (component (b) alone, 10 ppm), 95.5.

`CS(=O)(=O)Oc1ccc(F)c2c1COC(c1csc(C3CCN(C(=O)Cn4nc(C(F)F)cc4C(F)F)CC3)n1)OC2` (stereo not shown) [Compound 1-62, 4-[4-(6-fluoro-9-methylsulfonyloxy-1,5-dihydro-3H-2,4-benzodioxepin-3-yl)-2-thiazolyl]-1-[2-[3,5-bis(difluoromethyl)-1H-pyrazol-1-yl]acetyl]piperidine]: the pest or weed control at 0.0024 ppm in assay [1] (Phytophthora infestans, in Solanum lycopersicum, read-out: Test 1 Measured, Compound 1-62 alone, 0.0024 ppm) came to 59%; in assay [2] (Pseudoperonospora cubensis, Compound 1-62 alone, 0.0024 ppm, read-out: Test 2 Measured) it was 86%. For the same molecule, the pest or weed control at 0.012 ppm in assay [1] (Phytophthora infestans, in Solanum lycopersicum, read-out: Test 1 Measured, Compound 1-62 alone, 0.012 ppm) came out at 98%; in assay [2] (Pseudoperonospora cubensis, Compound 1-62 alone, 0.012 ppm, read-out: Test 2 Measured) it was 100%. Moreover, the pest or weed control at 0.06 ppm stood at 100% in assay [1] (Phytophthora infestans, in Solanum lycopersicum, read-out: Test 1 Measured, Compound 1-62 alone, 0.06 ppm) and 100% in assay [2] (Pseudoperonospora cubensis, Compound 1-62 alone, 0.06 ppm, read-out: Test 2 Measured).

For Propineb, the “Test 1 Measured” value in assay [1] (component (b) alone, 2 ppm) came to 0.0; in assay [1] (component (b) alone, 10 ppm) it was 36.1; in assay [1] (component (b) alone, 50 ppm), 99.0. Moreover, the “Test 1 Measured preventive value” in assay [1] (component (b) alone, 2 ppm) turned out to be 0.0; in assay [1] (component (b) alone, 10 ppm), 48.3; in assay [1] (component (b) alone, 50 ppm), 98.3. The “Test 2 Measured” value is given as 17.5 in assay [2] (component (b) alone, 2 ppm); 95 in assay [2] (component (b) alone, 10 ppm); 100 in assay [2] (component (b) alone, 50 ppm). For the same molecule, the “Test 2 Measured preventive value” is listed as 7.5 in assay [2] (component (b) alone, 2 ppm); 94.3 in assay [2] (component (b) alone, 10 ppm); 100 in assay [2] (component (b) alone, 50 ppm).

For the molecule `C[C@@]1(c2ccc(Oc3ccccc3)cc2)OC(=O)N(Nc2ccccc2)C1=O` (racemic) [Famoxadone], the pest or weed control at 2 ppm turned out to be 0% in assay [1] (Phytophthora infestans, in Solanum lycopersicum, read-out: Test 1 preventive value, Measured, applied alone, 2 ppm) and 0% in assay [2] (Pseudoperonospora cubensis, applied alone, 2 ppm, read-out: Test 2 preventive value, Measured). In addition, the pest or weed control at 10 ppm in assay [1] (setting [3]) and in assay [2] (setting [7]) was 0% throughout. Besides, the pest or weed control at 50 ppm in assay [1] (setting [3]) worked out at 10%; in assay [2] (setting [8]), 0%.

For Mancozeb, the “Test 1 Measured” value is on record as 21.8 in assay [1] (component (b) alone, 2 ppm); 80.5 in assay [1] (component (b) alone, 10 ppm); 100.0 in assay [1] (component (b) alone, 50 ppm). The “Test 1 Measured preventive value” in assay [1] (component (b) alone, 2 ppm) turned out to be 11.7; in assay [1] (component (b) alone, 10 ppm), 84.2; in assay [1] (component (b) alone, 50 ppm), 100.0. The “Test 2 Measured” value in assay [2] (component (b) alone, 2 ppm) is reported as 33; in assay [2] (component (b) alone, 10 ppm) it was 100; in assay [2] (component (b) alone, 50 ppm) it was 100. The “Test 2 Measured preventive value” in assay [2] (component (b) alone, 10 ppm) was 99; in assay [2] (component (b) alone, 50 ppm), 100.

As for `Cc1cccc2sc3nncn3c12` [Tricyclazole], in assay [1] (setting [3]), the pest or weed control at 20 ppm came to 0%, the pest or weed control at 100 ppm was 0% and the pest or weed control at 500 ppm is 70%. In assay [2] (setting [4]), the pest or weed control at 20 ppm came to 0%, the pest or weed control at 100 ppm was determined as 0% and the pest or weed control at 500 ppm worked out at 22.5%.

As for `COC(=O)NCc1cc(/C(C)=N/OCc2cccc(C)n2)ccc1Cl` [Pyribencarb], the pest or weed control at 10 ppm in assay [1] (setting [3]) was found to be 8.3%; in assay [2] (setting [7]), 0%. For the same molecule, the pest or weed control at 50 ppm is 11.7% in assay [1] (setting [3]) and 0% in assay [2] (setting [8]). Moreover, the pest or weed control at 250 ppm in assay [1] (setting [3]) was 23.3%; in assay [2] (setting [9]), 10%.

Take `Cc1ccc(-c2c(Cl)nc(C#N)n2S(=O)(=O)N(C)C)cc1` [Cyazofamid]: the pest or weed control at 0.08 ppm is 46.7% in assay [1] (Phytophthora infestans, in Solanum lycopersicum, read-out: Test 1 Measured preventive value, component (b) alone 0.08 ppm, average of three repeats); 46.7% in assay [1] (Phytophthora infestans, in Solanum lycopersicum, read-out: Test 1 Measured preventive value, component (b) alone, 0.08 ppm); 32% in assay [1] (Phytophthora infestans, in Solanum lycopersicum, read-out: Test 1 Measured, component (b) alone, 0.08 ppm); 99% in assay [2] (Pseudoperonospora cubensis, component (b) alone, 0.08 ppm, read-out: Test 2 Measured). Also, the pest or weed control at 0.4 ppm in assay [1] (Phytophthora infestans, in Solanum lycopersicum, read-out: Test 1 Measured preventive value, component (b) alone 0.4 ppm, average of three repeats) was found to be 95.5%; in assay [1] (setting [5]), 95.5%; in assay [1] (Phytophthora infestans, in Solanum lycopersicum, read-out: Test 1 Measured, component (b) alone, 0.4 ppm), 96%; in assay [2] (Pseudoperonospora cubensis, component (b) alone, 0.4 ppm, read-out: Test 2 Measured), 100%. The pest or weed control at 2 ppm amounted to 100% in assay [1] (Phytophthora infestans, in Solanum lycopersicum, read-out: Test 1 Measured preventive value, component (b) alone 2 ppm, average of three repeats); 100% in assay [1] (setting [6]); 100% in assay [1] (Phytophthora infestans, in Solanum lycopersicum, read-out: Test 1 Measured, component (b) alone, 2 ppm). Moreover, the pest or weed control at 0.003 ppm in assay [2] (Pseudoperonospora cubensis, component (b) alone, 0.003 ppm, read-out: Test 2 Measured) stood at 0%. Also, the “Test 2 Measured preventive value” in assay [2] (component (b) alone 0.003 ppm, average of three repeats) amounted to 0; in assay [2] (component (b) alone 0.08 ppm, average of three repeats) it was 99.5; in assay [2] (component (b) alone 0.4 ppm, average of three repeats), 100; in assay [2] (component (b) alone, 0.003 ppm), 0; in assay [2] (component (b) alone, 0.08 ppm) it was 99.5; in assay [2] (component (b) alone, 0.4 ppm), 100.

For `CC(C)CC(C)c1sccc1NC(=O)c1cn(C)nc1C(F)(F)F` (stereo not shown) [Penthiopyrad], the pest or weed control at 10 ppm in assay [1] (setting [3]) and in assay [2] (setting [7]) was 0% throughout. Further, the pest or weed control at 50 ppm in assay [1] (setting [3]) and in assay [2] (setting [8]) was 0% in each case. For the same molecule, the pest or weed control at 250 ppm in assay [1] (setting [3]) turned out to be 0%; in assay [2] (setting [9]), 27.5%.

For `CC(=O)Oc1c(C)c(C)nc2c(F)cc(C(C)(C)C)cc12` [Tebufloquin], the “Test 1 Measured” value in assay [1] (component (b) alone 4 ppm) amounted to 0.0; in assay [1] (component (b) alone, 20 ppm), 0.0; in assay [1] (component (b) alone, 100 ppm), 46.7. Moreover, the “Test 2 Measured” value in assay [2] (component (b) alone 4 ppm) stood at 0; in assay [2] (component (b) alone, 20 ppm), 0; in assay [2] (component (b) alone, 100 ppm) it was 0.

`CO/C=C(/C(=O)OC)c1ccccc1Oc1cc(Oc2ccccc2C#N)ncn1` [Azoxystrobin]: the results for the “Test 1 preventive value, Measured” value in assay [1] (0.4 ppm), in assay [1] (2 ppm) and in assay [1] (10 ppm) were 5.0, 66.7 and 96.2, respectively. Also, the “Test 2 preventive value, Measured” value in assay [2] (applied alone, 0.4 ppm) worked out at 0; in assay [2] (applied alone, 2 ppm), 0; in assay [2] (applied alone, 10 ppm) it was 0.

In the case of `O=C(NCc1ncc(C(F)(F)F)cc1Cl)c1c(Cl)cccc1Cl` [Fluopicolide], the “Test 1 Measured” value in assay [1] (component (b) alone, 0.4 ppm) is 0.0; in assay [1] (component (b) alone, 2 ppm) it was 30.0; in assay [1] (component (b) alone, 10 ppm) it was 90.8. The “Test 2 Measured” value in assay [2] (component (b) alone, 0.4 ppm) stood at 5; in assay [2] (component (b) alone, 2 ppm) it was 98.3; in assay [2] (component (b) alone, 10 ppm) it was 100.
